Source: patent US20250127788A1, “PHARMACEUTICAL COMPOSITION CONTAINING TRIAZINE DERIVATIVE” (Shionogi & Co., Ltd., priority 2021, published 2025)

Tested on: SARS-CoV-2
Experiment: microbe, parasite or virus in culture
Type: cell-based
[1] = Severe acute respiratory syndrome coronavirus 2, VeroE6/TMPRSS2
[2] = Severe acute respiratory syndrome coronavirus 2, VeroE6/TMPRSS2, Beta strain (TY8-612)
[3] = Severe acute respiratory syndrome coronavirus 2, VeroE6/TMPRSS2, Gamma strain (TY7-501)
[4] = Severe acute respiratory syndrome coronavirus 2, VeroE6/TMPRSS2, Gamma strain (TY7-503)

Row | SMILES | EC50 [1] [nM] | EC50 [2] [nM] | EC50 (Severe acute respiratory syndrome coronavirus 2, VeroE6/TMPRSS2, Delta strain (TY11-927-P1)) [nM] | EC50 [3] [nM] | EC50 [4] [nM] | EC50 (Severe acute respiratory syndrome coronavirus 2, VeroE6/TMPRSS2, Lambda strain (TY33-456)) [nM] | EC50 (Severe acute respiratory syndrome coronavirus 2, VeroE6/TMPRSS2, Mu strain (TY26-717)) [nM] | EC50 (Severe acute respiratory syndrome coronavirus 2, VeroE6/TMPRSS2, Theta strain (TY28-444)) [nM] | EC50 (Severe acute respiratory syndrome coronavirus 2, VeroE6/TMPRSS2, Alpha strain (QHN001)) [nM] | EC50 (Severe acute respiratory syndrome coronavirus 2, VeroE6/TMPRSS2, Alpha strain (QHN002)) [nM] | EC50 (Severe acute respiratory syndrome coronavirus 2, VeroE6/TMPRSS2, Alpha strain (QK002)) [nM]
1 | Cn1cnc(Cn2c(=O)[nH]/c(=N\c3cc4cn(C)nc4cc3Cl)n(Cc3cc(F)c(F)cc3F)c2=O)n1 | 370 | 400 | 410 | 500 | 430 | 270 | 430 | 290 |  |  | 
2 | Cc1cncc(-n2c(=O)nc(Nc3cc4cn(C)nc4cc3Cl)n(Cc3cc(F)c(F)c(F)c3)c2=O)c1 | 120 | 160 |  | 220 | 150 |  |  |  | 140 | 130 | 160
